From EP0005541A2, “Substituted piperidine, morpholine or piperidone derivatives, fungicides containing these compounds, process for their preparation and their use, and the use of these compounds as fungicides” (F. HOFFMANN-LA ROCHE & CO. Aktiengesellschaft, priority 1978, dated 1979)
Converted amounts (≈) assume the structure as drawn.

Columns and labels:
[1] = tested on: Histoplasma capsulatum Stamm Hist 2; test: microbe, parasite or virus in culture; assay type: cell-based; conditions: 288 h, read-out: MHC (µg/ml) Histoplasma capsulatum
Venturia inaequalis = Venturia inaequalis protective spray test on apple seedlings; assay type: in vivo; conditions: infected 2 days after spraying, read on day 13 after infection vs infected untreated control
Procedure: 3 Apfelpflänzchen (verteilt auf 3 Töpfe mit 5 cm Durchmesser) aus Samen der Sorte GOLDIN DELICIOUS wurden im 4- bis 5-Blattstadium mit einer wässerigen Dispersion der Testsubstanz (wie allgemein üblich aufbereitet als Spritzpulver) allseitig gründlich besprüht. Die behandelten Pflanzen wurden anschliessend während 2 Tagen bei 17°C, 70-80%rel. Luftfeuchtigkeit und einer Photoperiode von 14 Stunden weiterkultiviert. Danach erfolgte die Infektion der Apfelsämlinge durch Besprühen mit in dest. Wasser suspendierten Konidien (200'000 Konidien/ml) von Venturia inaequalis. Nach der Infektion wurden die Pflanzen im Dunkeln während 48 Stunden bei 16-18°C und einer rel. Luftfeuchtigkeit von über 90% inkubiert und anschliessend in ein schattiertes Gewächshaus mit einer Temperatur von 22-26 °C und einer rel. Luftfeuchtigkeit von über 80% überführt. Am 13. Tage nach der Infektion erfolgte die Ermittlung der durch Venturia inaequalis befallenen Blattfläche gegenüber der infizierten, nicht behandelten Kontrolle. Die Resultate sind in Tabelle II zusammengefasst.

[2] = tested on: Trichophyten mentagrophytes Stamm 109; test: Trichophyton mentagrophytes in vitro agar dilution test; assay type: cell-based; conditions: STAMM109, 168 h, minimal concentration fully preventing growth, tested at 100, 10, 1, 0,1, 0,01 mcg/ml, 7 days at 37°C, values mostly maximum values, true MHC may be lower, read-out: MHC (µg/ml) Trichophyton mentagr.
Procedure: Methode: Eine standardisierte Suspension der Hefeform von Konidien (Sporen) von Trichophyten mentagrophytes Stamm 109 (ca. das Fünfzigfache der zum Angehen der Kultur notwendigen geringsten Keimzahl) wird gleichzeitig mit geeigneten Präparatlösungen in verflüssigten und auf 50°C abgekühlten Agarnährboden nach Rowley und Huber eingegossen. Lösung der Präparate in Wasser oder Polyäthylenglykol (Carbowax 400). Präparate, die weder in Wasser noch in Polyäthylenglykol löslich sind, werden fein suspendiert. End- . konzentrationen der Präparate im Nährboden 100, 10, 1, 0,1 und 0,01 mcg/ml. Endkonzentration von Polyäthylenglykol 5%. 7 Tage Bebrütung bei 37°C.
(§1) Auswertung: Ablesung des Pilzwachstums mit blossem Auge.
(§2) Resultate: Angabe der minimalen Präparatkonzentration in mcg/ml, die das Wachstum des Pilzes vollständig verhindert (MHC). Die Resultate sind für einige Beispiele in der nachstehenden Tabelle II zusammengefasst.

[3] = tested on: Candida albicans Stamm H 29; test: Candida albicans in vitro agar dilution test; assay type: cell-based; conditions: STAMMH29, 168 h, minimal concentration fully preventing growth, tested at 100, 10, 1 mcg/ml, 7 days at 37°C, values mostly maximum values, true MHC may be lower
Procedure: Methode: Eine standardisierte Suspension der Hefeform von Candida albicans Stamm H 29 (ca. 300 Zellen/5 ml, das fünfzigfache der zum Angehen der Kultur notwendigen geringsten Keimzahl) wird gleichzeitig mit geeigneten Präparatlösungen in verflüssigten und auf 50°C abgekühlten Agarnährboden nach Rowley und Huber eingegossen. Lösung der Präparate in Wasser oder Polyäthylenglykol (Carbowax 400). Präparate, die weder in Wasser noch in Polyäthylenglykol löslich sind, werden fein suspendiert. Endkonzentrationen der Präparate im Nährboden 100, 10 und 1 mcg/ml. Endkonzentration von Polyäthylenglykol 5%. 7 Tage Bebrütung bei 37°C.
as §1, §2

Puccinia coronata = Puccinia coronata protective spray test on oat seedlings; assay type: in vivo; conditions: oat seedlings FLAEMINGSKRONE, infected 2 days after spraying, read on day 9 after infection vs infected untreated control
Procedure: 30-40 Haferkeimlinge der Sorte FLAEMINGSKRONE (verteilt auf 2 Töpfe mit 7 cm Durchmesser) wurden jeweils im Einblattstadium mit einer wässerigen Dispersion der Testsubstanz (wie allgemein üblich aufbereitet als Spritzpulver) allseitig gründlich besprüht und anschliessend in einer Klimakabine bei 17°C. 70-80% rel. Luftfeuchtigkeit und einer Photoperiode von 16 Stunden weiterkultiviert. Nach 2 Tagen erfolgte die Infektion der Versuchspflanzen durch Besprühen mit in dest. Wasser suspendierten Uredosporen (300'000 Sporen/ml) vor. Puccinia coronata. Danach wurden die Pflanzen während 24 Stunden bei 20°C und einer Luftfeuchtigkeit von über 90W im Dunkeln inkubiert und anschliessend in ein Gewächshaus mit einer Temperatur von 22-26 °C, einer rel. Luftfeuchtigkeit von 70% und einer Photoperiode von 18 Stunden übe führt. Am 9. Tage nach der Infektion wurde die durch Pucrinia coronata befallene Blattfläche in % gegenüber der infizierten, nicht behandelten Kontrolle ermittelt. Die ResLltate sind in Tabelle I zusammengefasst.

Erysiphe graminis = Erysiphe graminis protective spray test on barley seedlings (greenhouse); assay type: in vivo; conditions: barley seedlings HERTA, infected 2 days after spraying, read 7 days after infection vs infected untreated control
Procedure: 30-40 Gerstenkeimlinge der Sorte HERTA (verteilt auf 2 Töpfe mit 7 cm Durchmesser) wurden jeweils im Einblattstadium mit einer wässerigen Dispersion der Testsubstanz (wie allgemein üblich aufbereitet als Spritzpulver) allseitig gründlich besprüht und anschliessend bei 22-26°C, 80% rel. Luftfeuchtigkeit und einer Photoperiode von 16 Stunden im Gewächshaus weiterkultiviert. Die Infektion erfolgte 2 Tage nach der Behandlung durch Bestäuben der Versuchspflanzen mit Kon dien von Erysiphe graminis. 7 Tage nach der Infektion wurde ::ie durch Erysiphe graminis befallene Blattfläche in % gegenüber derjenigen der infizierten, nicht behandelten Kontrolle ermittelt. Die Resultate sind in Tabelle I zusammengefasst.

| SMILES | MIC [1] | Wirkung (in %) Venturia inaequalis (Venturia inaequalis; 5 mg/l Spritzbrühe) | Wirkung (in %) Venturia inaequalis (Venturia inaequalis; 16 mg/l Spritzbrühe) | Wirkung (in %) Venturia inaequalis (Venturia inaequalis; 50 mg/l Spritzbrühe) | Wirkung (in %) Venturia inaequalis (Venturia inaequalis; 160 mg/l Spritzbrühe) | MIC [2] | MIC [3] | Wirkung (in %) Puccinia coronata (Puccinia coronata; 5 mg/l Spritzbrühe) | Wirkung (in %) Puccinia coronata (Puccinia coronata; 16 mg/l Spritzbrühe) | Wirkung (in %) Puccinia coronata (Puccinia coronata; 50 mg/l Spritzbrühe) | Wirkung (in %) Puccinia coronata (Puccinia coronata; 160 mg/l Spritzbrühe) | Wirkung (in %) Puccinia coronata (Puccinia coronata; 500 mg/l Spritzbrühe) | Wirkung (in %) Erysiphe graminis (Erysiphe graminis; 5 mg/l Spritzbrühe) | Wirkung (in %) Erysiphe graminis (Erysiphe graminis; 16 mg/l Spritzbrühe) | Wirkung (in %) Erysiphe graminis (Erysiphe graminis; 50 mg/l Spritzbrühe) | Wirkung (in %) Erysiphe graminis (Erysiphe graminis; 160 mg/l Spritzbrühe) | Wirkung (in %) Venturia inaequalis (Venturia inaequalis; 500 mg/l Spritzbrühe) | Wirkung (in %) Erysiphe graminis (Erysiphe graminis; 500 mg/l Spritzbrühe) |
| --- | --- | --- | --- | --- | --- | --- | --- | --- | --- | --- | --- | --- | --- | --- | --- | --- | --- | --- |
| CCC(C)(C)c1ccc(C(C)=C(C)CN2CCC(=O)CC2)cc1 [1-[3-(p-tert.-Amyl-phenyl)-2,3-dimethyl-2-propenyl]-4-piperidon] | 10 µg/mL (≈ 31.9 µM) | 0% | 37% | 83% | 98% | 10 µg/mL (≈ 31.9 µM) | 10 µg/mL (≈ 31.9 µM) | 90% | 95% | 100% | 100% | 100% | 60% | 85% | 90% | 98% | – | – |
| CCC(C)(C)c1ccc(CC(C)CN2CCC(=O)CC2)cc1 (stereo not drawn) [1-[3-(p-tert.-Amyl-phenyl)-2-methyl-propyl]-4-piperidon] | 10 µg/mL (≈ 33.2 µM) | – | – | – | – | 10 µg/mL (≈ 33.2 µM) | 10 µg/mL (≈ 33.2 µM) | 0% | 10% | 90% | 98% | 100% | 20% | 80% | 95% | 100% | 20% | 100% |
